From patent US20090209620A1, “Direct Reversal Of The Suppressive Function Of CD4+Regulatory T Cells Via Toll-Like Receptor 8 Signaling” (priority 2005, published 2009)
“Also recorded” adds a separate entry of the source. In the oligonucleotide strings, read from the 5' end, every base follows the letter of its sugar. An asterisk marks phosphorothioate; unmarked linkages are phosphodiester. Other units and linkages are bracketed, terminal groups are in braces. A string of capitals states the bases alone. d = 2'-deoxy (DNA)

Legend:
[1] = test system: CD4+ Treg cells (Treg102, Treg164); test: Proliferation assay with dendritic cells: Treg suppression of naive CD4+ T cell proliferation ([3H]thymidine); assay type: cell-based, human; conditions: with DCs; LPS 100 ng/ml, IL-6 100 ng/ml, IFN-α 100 ng/ml
Text: (§1) Establishing Treg cell lines and purifying natural CD4^+ CD25^+ Treg cells CD4^+ Treg clones were established from CD4^+ tumor-infiltrating lymphocytes (TIL102 and TIL164) and maintained in RPMI 1640 medium containing 10% human AB serum and recombinant IL-2 (300 IU/ml) using methods well known in the art (See, e.g., H. Y. Wang et al., Immunity 20, 107-118 (2004)). Treg clones derived from TIL102 or TIL164 cells were pooled and designated Treg102 or Treg164. Naturally occurring CD4^+ CD25^+ Treg cells were obtained by sorting CD4^+ T cell populations from fresh PBMCs after staining with anti-CD4 and anti-CD25 antibodies. To obtain optimal expansion, the OKT3 expansion method was performed using methods well known in the art (See, e.g., H. Y. Wang et al., Immunity 20, 107-118 (2004)). T cell clones were maintained at a low IL-2 concentration (300 IU/ml). Melanoma cell lines and EBV-transformed B-cell lines used in this study were cultured in RPMI 1640 medium containing 10% FCS. Human embryonic kidney (HEK) 293 and Epstein-Barr virus (EBV)-transformed B cell lines were maintained in RPMI 1640 with 10% fetal calf serum (FCS).
A. Proliferation assay with Dendritic Cells (DCs): Näive CD4^+ T cells were purified from PBMCs using microbeads (Miltenvi Biotec). DCs were generated from PBMC-derived monocytes in the presence of IL-4 (500 ng/ml) and GM-CSF (800 ng/ml) for 7 days. 1×105 näive CD4^+ T cells were cultured with regulatory T cells at different ratios (1: 0.2, 1:0.1 and 1:0.05) in 200 ul of medium containing 2×104 of DCs and anti-CD3 antibody (100 ng/ml) plus one of the following TLR ligands or cytokines: CpG-A (3 ug/ml), CpG-B (3 ug/ml), LPS (100 ng/ml), TNF.-α (20 ng/ml), IFN-α (100 ng/ml), or IL-6 (100 ng/ml). After 56 h of culture, [3H]thymidine was added at a final concentration of 1 uCi/well, followed by an additional 16 h. of culture. The incorporation of [^3H]thymidine was measured with a liquid scintillation counter, using methods well known in the art (See, e.g., M. K. Levings et al., J. Exp. Med. 196, 1335-46 (2002)). All experiments were performed in triplicate.
Two CD4^+ Treg cell lines, designated Treg102 and Treg164, were generated with a panel of Treg cell clones derived from TIL102 and TIL164 cells. […] A functional proliferation assay was employed to examine whether CpG (a TLR9 ligand), LPS (a TLR4 ligand) or the cytokines IL-6 or IFN-α could regulate the suppressive activity of antigen specific human CD4^+ Treg cells in the presence of DCs. […]

[2] = test system: CD4+ Treg cells (Treg102, Treg164); test: Proliferation assay without DCs: Treg suppression of naive CD4+ T cell proliferation, anti-CD3-coated plates; assay type: cell-based, human; conditions: absence of DCs; anti-CD3-coated plates; oligonucleotides 3 ug/ml in medium
Text: as §1
B. Proliferation assay without DCs: 1×10^5 näive CD4 T cells were cultured with regulatory T cells at different ratios (1: 0.2, 1:0.1 and 1:0.05) in anti-CD3 mAb-coated (2 ug/ml) 96-well plates in the presence or absence of the following TLR ligands or cytokines: CpG-A (3 ug/ml), CpG-B (3 ug/ml), LPS (100 ng/ml), TNF.-α (20 ng/ml), IFN-α (100 ng/ml), or IL-6 (100 ng/ml). After 56 h of culture, [3H]thymidine was added at a final concentration of 1 uCi/well, followed by an additional 16 h of culture. The incorporation of [^3H]thymidine was measured with a liquid scintillation counter.
Näive CD4^+ T cell proliferation experiments were performed similar to those in FIG. 1A, but in the absence of DCs. […] The reversal effect of CpG-A (SEQ ID NO: 1) contrasts with the failure of CpG-B (SEQ ID NO: 2), LPS, TNF-α, IL-6 or IFN-α to block the suppressive activity of CD4^+ Treg cells against naive CD4^+ T cells (FIG. 1B).
To further define the CpG-A (SEQ ID NO: 1) sequences responsible for the observed reversal effect, CpG-NG (SEQ ID NO: 5) and Poly-G10 (SEQ ID NO: 6), were tested for their ability to reverse the suppressive function of Treg cells. Naive CD4^+ T cells were mixed with CD4^+ Treg cells in anti-CD3 antibody-coated 96-wells with 200 μl of medium containing CpG-NG (SEQ ID NO: 5), CpG-A (SEQ ID NO: 1) or Poly-G10 (SEQ ID NO: 6). The proliferation assay was conducted as described in FIG. 1. […] For the experiments shown in FIG. 2B, naive CD4^+ T cells were mixed with CD4^+ Treg cells in anti-CD3 antibody-coated 96-wells with 200 μl of medium containing Poly-A10 (SEQ ID NO: 7), Poly-T10 (SEQ ID NO: 9) or Poly-C10 (SEQ ID NO: 8), while the Poly-G10 (SEQ ID NO: 6) oligonucleotides served as a positive control.
A series of oligonucleotides with decreasing numbers of guanosine nucleosides was constructed to determine the minimal number required for the reversal effect. For the experiments in FIG. 2C, CD4^+ T cells were mixed with CD4^+ Treg cells in anti-CD3 antibody-coated 96-wells containing medium with protected phosphorothioate linked guanosine nucleoside containing oligonucleotides of various lengths, while the unprotected five guanosines (SEQ ID NO: 10) served as a control.

[3] = test system: antigen-specific Treg102 and Treg164 cells; test: TLR ligand assays: reversal of Treg suppression of naive CD4+ T cell proliferation; assay type: cell-based, human
Experimental: Näive CD4 T+cells were purified from PBMCs by using microbeads (Miltenvi Biotec). Näive CD4^+ T cells ([…]) were cultured with regulatory T cells at a ratio of 10:1 in OKT3 (2 ug/ml)-coated, U bottomed 96-well plates containing the following ligands: LPS (100 ng/ml), imiquimod (10 μg/ml), loxoribine (500 μM), poly(I:C) (25 μg/ml), ssRNA40/LyoVec (3 μg/ml), ssRNA33/LyoVec (3 μg/ml), pam3CSK4 (200 ng/ml) and flagellin (10 μg/ml) were purchased from Invivogene (San Diego, Calif.), while CpG-A (3 μg/ml), CpG-B (3 μg/ml) and Poly-G oligonucleotides (3 μg/ml) were synthesized in Integrated DNA Technologies, Inc (Coralville, Iowa). Functional assays were identical to those described above.
If the TLR8-MyD88-IRAK4 signaling pathway is necessary and sufficient for direct reversal of the suppressive function of Treg cells, it should be possible to produce that effect with natural ligands for human TLR8. For FIG. 4A-B, naive CD4^+ T cells were mixed with Treg102, Treg164 or naturally occurring CD4^+ CD25^+ Treg cells in anti-CD3 antibody-coated wells in the presence of different TLR ligands. Data are presented as means±SD and represent results from three independent experiments.

[4] = test system: naturally occurring CD4+ CD25+ Treg cells; test: Reversal of suppressive function of naturally occurring CD4+CD25+ Treg cells (proliferation assay); assay type: cell-based; conditions: sorted from fresh human PBMCs; anti-CD3-coated wells
Text: as §1, with “Melanoma cell lines and EBV-transformed B-cell lines used in this study were cultured in RPMI 1640 medium containing 10% FCS. Human embryonic kidney (HEK) 293 and Epstein-Barr virus (EBV)-transformed B cell lines were maintained in RPMI 1640 with 10% fetal calf serum (FCS).” left out
The expression of CD4, CD25 and GITR on Treg cells was determined by FACS analysis after staining with specific antibodies (purchased from R&D Systems and BD Biosciences). […] After 3 days in culture, the cells were analyzed by FACS gating on the CFSE-labeled cells. […]
FIG. 2E: Both CD4^+ CD25^+ and CD25^− T cells were sorted after staining of freshly isolated human CD4^+ T cells with anti-CD4 and anti-CD25 antibodies. The purity of the sorted T cells was determined by FACS. […]

586mel human tumor cells = test: Human 586mel tumor model in Rag1-/- mice with adoptive transfer of TIL586 and Treg102 cells; assay type: in vivo; conditions: 586mel s.c. day 0; CD8+ TIL586 plus Treg102 cells with oligonucleotide on day 3; n=6 mice per group
Experimental: Human 586mel tumor cells (5×106) in 100 μl of buffered saline were subcutaneously injected into Rag1^−/− mice (lacking T and B cells) or Rag 2 ^−/− γC ^−/− mice (lacking T, B and NK cells) on day 0. Tumor-specific CD8^+ TIL586 cells (2.5×107), which recognize and kill 586mel cells, were injected intravenously on day 3 with or without Treg102 cells (3×106) pretreated with Poly-G10 or Poly-T10. Tumor size was measured with calipers every 2-3 days. Tumor volume was calculated on the basis of two-dimensioned measurements. Tumor growth curves were compared with the Wilcoxon rank-sum test.
The data in FIG. 4A-B confirms that TLR8 serves as a receptor for synthetic guanosine containing oligonucleotides and natural ssRNA40 and ssRNA33 ligands derived from HIV-1 virus, and that its activation in endosomes by synthetic DNA or ssRNA ligands triggers a signaling pathway that can reverse the suppressive function of Treg cells. To study the guanosine containing oligonucleotide induced reversal of Treg cell function in vivo, a human tumor model was established by subcutaneously injecting 586mel human tumor cells into Rag1^−/− (T and B cell deficient) mice. […] Tumor volumes were measured and presented as mean±SD (n=6 mice per group). P value was determined between groups as indicated. […]

Molecule | restoration of proliferative ability of naive CD4+ T cells in the presence of CD4+ Treg cells [1] | reversal of Treg cell-mediated suppression of naive CD4+ T cell proliferation [2] | reversal of suppressive function of naturally occurring CD4+CD25+ Treg cells [4] | further results
lipopolysaccharide [LPS] | did not restore the proliferative ability | failure |  | restoration of proliferation of naive CD4+ T cells in the presence of Treg cells ([3]; Treg102, Treg164 or naturally occurring CD4+CD25+ Treg cells (FIG. 4A-B)): failed to restore the proliferation of naive CD4^+ T cells
Poly-G5: Poly-G oligonucleotide with phosphorothioate linkages (DNA dG*dG*dG*dG*dG) |  |  | Reversal of suppressive function; also recorded: entirely reversed; also recorded: could be reversed | 
IL-6: cytokine | did not restore the proliferative ability | failure |  | 
IFN-α | did not restore the proliferative ability | failure |  | 
Poly-T10: control oligonucleotide with protected phosphorothioate backbone (DNA TTTTTTTTTT) |  | failed to reverse the suppressive function of Treg cells; also recorded: lacked the ability to reverse the suppressive activity of Treg cells |  | tumor growth / antitumor immunity (586mel human tumor cells): grew faster than in mice receiving 586mel cells alone
CC(C)Cn1cnc2c(N)nc3ccccc3c21 [Imiquimod] |  |  | little or no effect | reversal of suppressive function of antigen-specific Treg cells ([3]; Treg102 and Treg164, naive T:Treg 10:1, OKT3-coated plates): partial reversal
